This passage reports IC50 results from patent US5922718A, “Triazolones as apolipoprotein-B synthesis inhibitors” (Janssen Pharmaceutica, N.V., priority 1995, dated 1999).

The structures appear in SMILES notation.

The first assay deals with apolipoprotein B. Put plainly: Apolipoprotein B (apo B) Inhibition Test. It counts as cell-based, human. The note with it: HepG2-cells, overnight at 37° C., radioactively labelled leucine, double immunoprecipitation; read-out: IC50 (concentration of the drug needed to reduce apoB secretion to 50% of the control). Here is the method: Cultured human liver cells (HepG2-cells), which synthesize and secrete low-density lipoproteins, were incubated overnight at 37° C. in a liquid medium containing radioactively labelled leucine. Thus radioactively labelled leucine was incorporated into the apolipoprotein B. The liquid medium was decanted and the apolipoprotein B was isolated by means of a double immunoprecipitation, i.e. first an apolipoprotein B-specific antibody (antibody1) was added to the liquid medium and subsequently a second antibody (antibody2) was added which binds specifically to the apoB-antibody1 -complex. The thus formed apoB-antibody1 -antibody2 complex precipitated and was isolated by centrifuge. Quantification of the amount of apolipoprotein B synthesized during the night resulted from measuring the radioactivity of the isolated complex. To measure the inhibiting activity of the test compound, that test compound was added to the liquid medium at different concentrations and the concentration of apolipoprotein B synthesized in the presence of a test compound (concentration apoB(after)) was compared to the concentration of apolipoprotein B which was synthesized in the absence of the test compound (concentration apoB(control)). For each experiment the inhibition of apolipoprotein-B formation was expressed as
% inhibition=100×(1-concentration of apoB(after)/concentration
When more experiments were carried out for the same concentration, the median value of the inhibition calculated for these experiments was calculated. IC50 -values (concentration of the drug needed to reduce apoB secretion to 50% of the control) were also computed.
For the compound `CCC(C)n1cnn(-c2ccc(N3CCN(c4ccc(OCC5COC(CCn6cncn6)(c6ccc(F)cc6F)O5)cc4)CC3)cc2)c1=O` (stereo not shown) [Compound 26], the IC50 stood at 300 nM.

The assay is the same for the next values; noted with them: Homo sapiens, HepG2-cells, overnight at 37° C., radioactively labelled leucine, double immunoprecipitation; read-out: IC50 (concentration of the drug needed to reduce apoB secretion to 50% of the control).
In the case of `CCCn1c(C)nn(-c2ccc(N3CCN(c4ccc(OC[C@H]5CO[C@](Cn6ccnc6)(c6ccc(Cl)cc6Cl)O5)cc4)CC3)cc2)c1=O` (relative stereo) [Compound 4], the IC50 was found to be 1000 nM.
On the same count and under the same terms, then `CC(C)n1cnn(-c2ccc(N3CCN(c4ccc(OC[C@H]5CO[C@](Cn6ccnc6)(c6ccc(Cl)cc6Cl)O5)cc4)CC3)cc2)c1=O` (relative stereo) [Compound 7], with 630 nM.
On the same count and under the same terms, the value for `CC(C)n1cnn(-c2ccc(N3CCN(c4ccc(OC[C@H]5CO[C@](Cn6ccnc6)(c6cccc7ccccc67)O5)cc4)CC3)cc2)c1=O` (relative stereo) [Compound 9] was 560 nM; that for `CC(C)n1cnn(-c2ccc(N3CCN(c4ccc(OC[C@H]5CO[C@](Cn6cccn6)(c6ccc(F)cc6F)O5)cc4)CC3)cc2)c1=O` (relative stereo) [Compound 10] was 290 nM.
As for `CC(C)n1cnn(-c2ccc(N3CCN(c4ccc(OC[C@H]5CO[C@](Cn6cncn6)(c6ccc(Cl)cc6Cl)O5)cc4)CC3)cc2)c1=O` (relative stereo) [Compound 17], the IC50 came to 720 nM.
On the same count and under the same terms, the value for `CC(C)n1cnn(-c2ccc(N3CCN(c4ccc(OC[C@H]5CO[C@](Cn6cncn6)(c6ccc(F)cc6F)O5)cc4)CC3)cc2)c1=O` (relative stereo) [Compound 23] was 340 nM; that for `CC(C)n1cnn(-c2ccc(N3CCN(c4ccc(OC[C@H]5CO[C@](Cn6cncn6)(c6cccc7ccccc67)O5)cc4)CC3)cc2)c1=O` (relative stereo) [Compound 24] was 910 nM; that for `CCC(C)n1cnn(-c2ccc(N3CCN(c4ccc(OC[C@H]5CO[C@](Cn6cncn6)(c6ccc(F)cc6F)O5)cc4)CC3)cc2)c1=O` (stereo partly drawn) [Compound 19, cis-2-[4-[4-[4-[[2-(2,4-difluorophenyl)-2-(1H-1,2,4-triazol-1yl-methyl)-1,3-dioxolan-4-yl]methoxy]phenyl]-1-piperazinyl]phenyl]-2,4-dihydro-4-(1-methylpropyl)-3H-1,2,4-triazol-3-one] was 170 nM.
Turning to `CCC(C)n1cnn(-c2ccc(N3CCN(c4ccc(OC[C@H]5CO[C@](Cn6cncn6)(c6ccc(F)cc6)O5)cc4)CC3)cc2)c1=O` (stereo partly shown) [Compound 20], the IC50 was found to be 860 nM.
On the same count and under the same terms, the value for `CCC(C)n1cnn(-c2ccc(N3CCN(c4ccc(OC[C@H]5CO[C@](Cn6cncn6)(c6ccc(Cl)cc6Cl)O5)cc4)CC3)cc2)c1=O` (stereo partly shown) [Compound 22] was 390 nM.
Still for that read-out and setting: the value for `CCC(C)n1cnn(-c2ccc(N3CCN(c4ccc(OCC5COC(CCn6cncn6)(c6ccc(F)cc6F)O5)cc4)CC3)cc2)c1=O` (stereo not shown) [Compound 25] was 230 nM; that for `CCC(C)n1cnn(-c2ccc(N3CCN(c4ccc(OCC5COC(CCn6cncn6)(c6ccc(Cl)cc6)O5)cc4)CC3)cc2)c1=O` (stereo not shown) [Compound 27] was 270 nM.
